# Data as given in US9260439B2, “Dihydropyrrolopyrimidine derivatives” (PFIZER INC., priority 2014, dated 2016).
# Biological target: truncated PI3Kα (p110α/iSH2 p85α) (Homo sapiens (Human), UniProt P42336)
# Test: PI3KA_Act fluorescence polarization kinase assay (Ki)
# Format: biochemical
# Details: 1 mM ATP
# How it was run: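 p110α/iSH2 p85α (0.5 nM) was reacted with 30 μM sonicated PIP2 in 50 mM HEPES pH 7.4, 150 mM NaCl, 5 mM MgCl2, 1 mM DTT and 0.05% CHAPS for 30 min at room temperature, then stopped with EDTA. PIP3 was detected by fluorescence polarization (GST-Grp1 PH domain/TAMRA-PIP3), and Ki came from a Morrison tight-binding fit.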
# truncated PI3Kα (p110α/iSH2 p85α), sequence (P42336 whole entry, the tested form may be a part): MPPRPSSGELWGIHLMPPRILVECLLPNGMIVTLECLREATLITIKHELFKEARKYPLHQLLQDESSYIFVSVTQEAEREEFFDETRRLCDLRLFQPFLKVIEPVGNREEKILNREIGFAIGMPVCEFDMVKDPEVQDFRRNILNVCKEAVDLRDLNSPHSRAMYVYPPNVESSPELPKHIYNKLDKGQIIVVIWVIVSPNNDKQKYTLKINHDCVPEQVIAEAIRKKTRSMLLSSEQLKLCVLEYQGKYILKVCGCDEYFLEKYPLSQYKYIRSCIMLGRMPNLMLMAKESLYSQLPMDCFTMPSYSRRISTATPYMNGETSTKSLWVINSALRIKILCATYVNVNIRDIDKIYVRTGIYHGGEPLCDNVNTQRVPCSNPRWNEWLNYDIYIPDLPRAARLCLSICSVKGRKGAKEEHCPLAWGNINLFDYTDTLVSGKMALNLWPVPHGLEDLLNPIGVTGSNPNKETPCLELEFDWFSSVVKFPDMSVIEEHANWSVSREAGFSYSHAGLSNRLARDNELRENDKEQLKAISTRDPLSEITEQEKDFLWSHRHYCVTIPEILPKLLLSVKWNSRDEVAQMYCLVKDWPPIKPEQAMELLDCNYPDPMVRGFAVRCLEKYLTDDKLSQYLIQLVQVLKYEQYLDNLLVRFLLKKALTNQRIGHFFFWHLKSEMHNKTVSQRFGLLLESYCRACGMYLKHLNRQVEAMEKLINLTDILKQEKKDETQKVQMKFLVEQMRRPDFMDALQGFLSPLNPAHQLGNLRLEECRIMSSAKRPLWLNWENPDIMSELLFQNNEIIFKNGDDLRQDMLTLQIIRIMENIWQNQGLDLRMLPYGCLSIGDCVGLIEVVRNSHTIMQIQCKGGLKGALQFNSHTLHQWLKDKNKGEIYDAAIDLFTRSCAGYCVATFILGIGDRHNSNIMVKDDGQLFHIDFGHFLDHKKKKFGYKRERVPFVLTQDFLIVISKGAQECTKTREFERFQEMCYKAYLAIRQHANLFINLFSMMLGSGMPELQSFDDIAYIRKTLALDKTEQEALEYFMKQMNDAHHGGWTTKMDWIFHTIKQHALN
Ki [nM],SMILES,PI3KA_Act Ki [nM]
–,"CNC(=O)CN1CC[C@](C)(N2CCc3c(-c4cnc(N)nc4)nc(N4CCOCC4)nc32)C1 [Example 401, 2-{(3S)-3-[4-(2-aminopyrimidin-5-yl)-2-(morpholin-4-yl)-5,6-dihydro-7H-pyrrolo[2,3-d]pyrimidin-7-yl]-3-methylpyrrolidin-1-yl}-N-methylacetamide]",0.109
–,"CN(C)C(=O)CN1CC[C@@](C)(N2CCc3c(-c4cnc(N)nc4)nc(N4CCOCC4)nc32)C1 [Example 402, 2-{(3R)-3-[4-(2-aminopyrimidin-5-yl)-2-(morpholin-4-yl)-5,6-dihydro-7H-pyrrolo[2,3-d]pyrimidin-7-yl]-3-methylpyrrolidin-1-yl}-N,N-dimethylacetamide]",0.872
–,"CN(C)C(=O)CN1CC[C@](C)(N2CCc3c(-c4cnc(N)nc4)nc(N4CCOCC4)nc32)C1 [Example 403, 2-{(3S)-3-[4-(2-aminopyrimidin-5-yl)-2-(morpholin-4-yl)-5,6-dihydro-7H-pyrrolo[2,3-d]pyrimidin-7-yl]-3-methylpyrrolidin-1-yl}-N,N-dimethylacetamide]",0.053
–,"CCOC(=O)N1CC[C@@](C)(N2CCc3c(-c4cnc(N)nc4)nc(N4CCOCC4)nc32)C1 [Example 404, ethyl (3R)-3-[4-(2-aminopyrimidin-5-yl)-2-(morpholin-4-yl)-5,6-dihydro-7H-pyrrolo[2,3-d]pyrimidin-7-yl]-3-methylpyrrolidine-1-carboxylate]",0.128
–,"CCOC(=O)N1CC[C@](C)(N2CCc3c(-c4cnc(N)nc4)nc(N4CCOCC4)nc32)C1 [Example 405, ethyl (3S)-3-[4-(2-aminopyrimidin-5-yl)-2-(morpholin-4-yl)-5,6-dihydro-7H-pyrrolo[2,3-d]pyrimidin-7-yl]-3-methylpyrrolidine-1-carboxylate]",<0.018
–,"CC(C)OC(=O)N1CC[C@](C)(N2CCc3c(-c4cnc(N)nc4)nc(N4CCOCC4)nc32)C1 [Example 406, propan-2-yl (3S)-3-[4-(2-aminopyrimidin-5-yl)-2-(morpholin-4-yl)-5,6-dihydro-7H-pyrrolo[2,3-d]pyrimidin-7-yl]-3-methylpyrrolidine-1-carboxylate]",<0.018
–,"CC(C)OC(=O)N1CC[C@@](C)(N2CCc3c(-c4cnc(N)nc4)nc(N4CCOCC4)nc32)C1 [Example 407, propan-2-yl (3R)-3-[4-(2-aminopyrimidin-5-yl)-2-(morpholin-4-yl)-5,6-dihydro-7H-pyrrolo[2,3-d]pyrimidin-7-yl]-3-methylpyrrolidine-1-carboxylate]",0.235
1.08,"CC(C)(C)OC(=O)N1C[C@@H](N2CCc3c(-c4cnc(N)nc4)nc(N4CCOCC4)nc32)[C@@H](F)C1 [Example 408, tert-butyl (3R,4S)-3-[4-(2-aminopyrimidin-5-yl)-2-(morpholin-4-yl)-5,6-dihydro-7H-pyrrolo[2,3-d]pyrimidin-7-yl]-4-fluoropyrrolidine-1-carboxylate]",–
–,"CC(C)(C)OC(=O)N1C[C@@H](F)[C@@H](N2CCc3c(-c4cnc(N)nc4)nc(N4CCOCC4)nc32)C1 [Example 409, tert-butyl (3S,4R)-3-[4-(2-aminopyrimidin-5-yl)-2-(morpholin-4-yl)-5,6-dihydro-7H-pyrrolo[2,3-d]pyrimidin-7-yl]-4-fluoropyrrolidine-1-carboxylate]",0.168
0.262,"CC[C@@]1(N2CCc3c(-c4cnc(N)nc4)nc(N4CCOCC4)nc32)CCN(C(=O)OC(C)(C)C)C1 [Example 410, tert-butyl (3R)-3-[4-(2-aminopyrimidin-5-yl)-2-(morpholin-4-yl)-5,6-dihydro-7H-pyrrolo[2,3-d]pyrimidin-7-yl]-3-ethylpyrrolidine-1-carboxylate]",–
–,"CC[C@]1(N2CCc3c(-c4cnc(N)nc4)nc(N4CCOCC4)nc32)CCN(C(=O)OC(C)(C)C)C1 [Example 411, tert-butyl (3S)-3-[4-(2-aminopyrimidin-5-yl)-2-(morpholin-4-yl)-5,6-dihydro-7H-pyrrolo[2,3-d]pyrimidin-7-yl]-3-ethylpyrrolidine-1-carboxylate]",<0.018
–,"CC(C)(N)COC(=O)N1CC[C@](C)(N2CCc3c(-c4cnc(N)nc4)nc(N4CCOCC4)nc32)C1.Cl [Example 412, 2-amino-2-methylpropyl (3S)-3-[4-(2-aminopyrimidin-5-yl)-2-(morpholin-4-yl)-5,6-dihydro-7H-pyrrolo[2,3-d]pyrimidin-7-yl]-3-methylpyrrolidine-1-carboxylate hydrochloride]",<0.018
–,"C[C@]1(N2CCc3c(-c4cnc(N)nc4)nc(N4CCOCC4)nc32)CCN(C(=O)OCC2CNC2)C1.Cl [Example 413, azetidin-3-ylmethyl (3S)-3-[4-(2-aminopyrimidin-5-yl)-2-(morpholin-4-yl)-5,6-dihydro-7H-pyrrolo[2,3-d]pyrimidin-7-yl]-3-methylpyrrolidine-1-carboxylate hydrochloride]",<0.018
–,"CC1(OC(=O)N2CC[C@](C)(N3CCc4c(-c5cnc(N)nc5)nc(N5CCOCC5)nc43)C2)CNC1.Cl [Example 414, 3-methylazetidin-3-yl (3S)-3-[4-(2-aminopyrimidin-5-yl)-2-(morpholin-4-yl)-5,6-dihydro-7H-pyrrolo[2,3-d]pyrimidin-7-yl]-3-methylpyrrolidine-1-carboxylate hydrochloride]",0.039
–,"C[C@]1(N2CCc3c(-c4cnc(N)nc4)nc(N4CCOCC4)nc32)CCN(C(=O)OC2CNC2)C1.Cl [Example 415, azetidin-3-yl (3S)-3-[4-(2-aminopyrimidin-5-yl)-2-(morpholin-4-yl)-5,6-dihydro-7H-pyrrolo[2,3-d]pyrimidin-7-yl]-3-methylpyrrolidine-1-carboxylate hydrochloride]",<0.018
–,"CN1CC[C@@H](OC(=O)N2CC[C@](C)(N3CCc4c(-c5cnc(N)nc5)nc(N5CCOCC5)nc43)C2)C1 [Example 416, (3R)-1-methylpyrrolidin-3-yl (3S)-3-[4-(2-aminopyrimidin-5-yl)-2-(morpholin-4-yl)-5,6-dihydro-7H-pyrrolo[2,3-d]pyrimidin-7-yl]-3-methylpyrrolidine-1-carboxylate]",<0.018
–,"CN1CC[C@H](OC(=O)N2CC[C@](C)(N3CCc4c(-c5cnc(N)nc5)nc(N5CCOCC5)nc43)C2)C1 [Example 417, (3S)-1-methylpyrrolidin-3-yl (3S)-3-[4-(2-aminopyrimidin-5-yl)-2-(morpholin-4-yl)-5,6-dihydro-7H-pyrrolo[2,3-d]pyrimidin-7-yl]-3-methylpyrrolidine-1-carboxylate]",<0.018
–,"CN1CC[C@](C)(N2CCc3c(-c4cnc(N)nc4)nc(N4CCOCC4)nc32)C1 [Example 418, 5-{7-[(3S)-1,3-dimethylpyrrolidin-3-yl]-2-(morpholin-4-yl)-6,7-dihydro-5H-pyrrolo[2,3-d]pyrimidin-4-yl}pyrimidin-2-amine]",0.320
–,"CN1CC[C@@](C)(N2CCc3c(-c4cnc(N)nc4)nc(N4CCOCC4)nc32)C1 [Example 419, 5-{7-[(3R)-1,3-dimethylpyrrolidin-3-yl]-2-(morpholin-4-yl)-6,7-dihydro-5H-pyrrolo[2,3-d]pyrimidin-4-yl}pyrimidin-2-amine]",1.990
–,"CC(C)N1CC[C@](C)(N2CCc3c(-c4cnc(N)nc4)nc(N4CCOCC4)nc32)C1 [Example 420, 5-{7-[(3S)-3-methyl-1-(propan-2-yl)pyrrolidin-3-yl]-2-(morpholin-4-yl)-6,7-dihydro-5H-pyrrolo[2,3-d]pyrimidin-4-yl}pyrimidin-2-amine]",0.601
–,"C[C@]1(N2CCc3c(-c4cnc(N)nc4)nc(N4CCOCC4)nc32)CCN(CC(F)F)C1 [Example 421, 5-{7-[(3S)-1-(2,2-difluoroethyl)-3-methylpyrrolidin-3-yl]-2-(morpholin-4-yl)-6,7-dihydro-5H-pyrrolo[2,3-d]pyrimidin-4-yl}pyrimidin-2-amine]",0.071
–,"CC(C)(O)CN1CC[C@](C)(N2CCc3c(-c4cnc(N)nc4)nc(N4CCOCC4)nc32)C1 [Example 422, 1-{(3S)-3-[4-(2-aminopyrimidin-5-yl)-2-(morpholin-4-yl)-5,6-dihydro-7H-pyrrolo[2,3-d]pyrimidin-7-yl]-3-methylpyrrolidin-1-yl}-2-methylpropan-2-ol]",0.415
–,"COC(=O)C(C)(C)N1CC[C@](C)(N2CCc3c(-c4cnc(N)nc4)nc(N4CCOCC4)nc32)C1 [Example 423, methyl 2-{(3S)-3-[4-(2-aminopyrimidin-5-yl)-2-(morpholin-4-yl)-5,6-dihydro-7H-pyrrolo[2,3-d]pyrimidin-7-yl]-3-methylpyrrolidin-1-yl}-2-methylpropanoate]",0.445
–,"CC(C)(C(N)=O)N1CC[C@](C)(N2CCc3c(-c4cnc(N)nc4)nc(N4CCOCC4)nc32)C1 [Example 424, 2-{(3S)-3-[4-(2-aminopyrimidin-5-yl)-2-(morpholin-4-yl)-5,6-dihydro-7H-pyrrolo[2,3-d]pyrimidin-7-yl]-3-methylpyrrolidin-1-yl}-2-methylpropanamide]",0.321
–,"C[C@]1(N2CCc3c(-c4cnc(N)nc4)nc(N4CCOCC4)nc32)CCN(C2CCCC2)C1 [Example 425, 5-{7-[(3S)-1-cyclopentyl-3-methylpyrrolidin-3-yl]-2-(morpholin-4-yl)-6,7-dihydro-5H-pyrrolo[2,3-d]pyrimidin-4-yl}pyrimidin-2-amine]",0.311
–,"CC1(N2CCc3c(-c4cnc(N)nc4)nc(N4CCOCC4)nc32)CCNCC1.Cl [Example 430, 5-[7-(4-methylpiperidin-4-yl)-2-(morpholin-4-yl)-6,7-dihydro-5H-pyrrolo[2,3-d]pyrimidin-4-yl]pyrimidin-2-amine hydrochloride]",0.785
